Laboratory results taken from ChEMBL document CHEMBL1201862, “PubChem BioAssay data set” (2004).
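Dose response: 5 concentrations. Exposure: 48 h. Format: 96-well plates. Endpoint: linear interpolation; highest concentration if not reached. The concentration for 50% growth inhibition is given as GI50.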 Calls of active or inactive are those of the source. Cut-off read from the data, not from the text of the source: active = GI50 up to about 1.1 µM and inactive = higher.

Tests used:
Experiment in all cases: inhibition of tumour cell growth, NCI panel, 48 h
CAKI-1 = test system: CAKI-1
SK-MEL-2 = test system: SK-MEL-2
NCI-H522 = test system: NCI-H522
NCI-H460 = test system: NCI-H460
HOP-62 = test system: HOP-62
SW-620 = test system: SW-620
UACC-257 = test system: UACC-257
SNB-19 = test system: SNB-19
RPMI-8226 = test system: RPMI-8226
HOP-92 = test system: HOP-92
NCI-H23 = test system: NCI-H23
Malme-3M = test system: Malme-3M
SK-MEL-5 = test system: SK-MEL-5
CCRF-CEM = test system: CCRF-CEM
A549 = test system: A549
HCT-15 = test system: HCT-15
OVCAR-4 = test system: OVCAR-4
MCF7 = test system: MCF7
NCI-H226 = test system: NCI-H226
MDA-N = test system: MDA-N
A498 = test system: A498
KM12 = test system: KM12
M14 = test system: M14
PC-3 = test system: PC-3
UACC-62 = test system: UACC-62
HCC 2998 = test system: HCC 2998
RXF 393 = test system: RXF 393
LOX IMVI = test system: LOX IMVI
DU-145 = test system: DU-145
COLO 205 = test system: COLO 205
U-251 = test system: U-251
IGROV-1 = test system: IGROV-1
MDA-MB-435 = test system: MDA-MB-435
ACHN = test system: ACHN
K562 = test system: K562
TK-10 = test system: TK-10
HT-29 = test system: HT-29
EKVX = test system: EKVX
OVCAR-8 = test system: OVCAR-8
OVCAR-5 = test system: OVCAR-5
T47D = test system: T47D
SF-268 = test system: SF-268
HL-60 = test system: HL-60
SN12C = test system: SN12C
NCI/ADR-RES = test system: NCI/ADR-RES
SNB-75 = test system: SNB-75
SF-539 = test system: SF-539
SR = test system: SR
MOLT-4 = test system: MOLT-4
UO-31 = test system: UO-31
HCT-116 = test system: HCT-116
MDA-MB-231 = test system: MDA-MB-231
BT-549 = test system: BT-549
786-0 = test system: 786-0
SK-MEL-28 = test system: SK-MEL-28
SF-295 = test system: SF-295
Hs-578T = test system: Hs-578T
SK-OV-3 = test system: SK-OV-3
OVCAR-3 = test system: OVCAR-3

CCN(CC)CCCNC(=O)c1cc(-c2nccn2C)nc2ccccc12 was tested, and the GI50 (CAKI-1) was > 100 µM (inactive), the GI50 (SK-MEL-2) was > 100 µM (inactive) and the GI50 (NCI-H522) was > 100 µM (inactive). The GI50 (NCI-H460) was 59.7 µM (inactive), the GI50 (HOP-62) was > 100 µM (inactive) and the GI50 (SW-620) was > 100 µM (inactive). For the same compound, the GI50 (UACC-257) was > 100 µM (inactive), the GI50 (SNB-19) was > 100 µM (inactive) and the GI50 (RPMI-8226) was > 100 µM (inactive). The GI50 (HOP-92) was > 100 µM (inactive), the GI50 (NCI-H23) was > 100 µM (inactive) and the GI50 (Malme-3M) was > 100 µM (inactive). The GI50 (SK-MEL-5) was > 100 µM (inactive), the GI50 (CCRF-CEM) was > 100 µM (inactive) and the GI50 (A549) was > 100 µM (inactive). The GI50 (HCT-15) was > 100 µM, the GI50 (OVCAR-4) was 61.2 µM (inactive) and the GI50 (MCF7) was > 100 µM (inactive). The GI50 (NCI-H226) was > 100 µM (inactive), the GI50 (MDA-N) was > 100 µM (inactive) and the GI50 (A498) was > 100 µM (inactive). The GI50 (KM12) was > 100 µM (inactive), the GI50 (M14) was > 100 µM (inactive) and the GI50 (PC-3) was > 100 µM (inactive). The GI50 (UACC-62) was > 100 µM (inactive), the GI50 (HCC 2998) was > 100 µM (inactive) and the GI50 (RXF 393) was > 100 µM (inactive). For the same compound, the GI50 (LOX IMVI) was > 100 µM (inactive), the GI50 (DU-145) was > 100 µM (inactive) and the GI50 (COLO 205) was > 100 µM (inactive). For the same compound, the GI50 (U-251) was > 100 µM (inactive), the GI50 (IGROV-1) was > 100 µM (inactive) and the GI50 (MDA-MB-435) was > 100 µM (inactive). The GI50 (ACHN) was > 100 µM (inactive), the GI50 (K562) was > 100 µM (inactive) and the GI50 (TK-10) was > 100 µM (inactive). For the same compound, the GI50 (HT-29) was > 100 µM (inactive), the GI50 (EKVX) was > 100 µM (inactive) and the GI50 (OVCAR-8) was > 100 µM (inactive). For the same compound, the GI50 (OVCAR-5) was > 100 µM (inactive), the GI50 (T47D) was > 100 µM (inactive) and the GI50 (SF-268) was > 100 µM (inactive). The GI50 (HL-60) was > 100 µM (inactive), the GI50 (SN12C) was > 100 µM (inactive) and the GI50 (NCI/ADR-RES) was > 100 µM (inactive). For the same compound, the GI50 (SNB-75) was 57.7 µM (inactive), the GI50 (SF-539) was > 100 µM (inactive) and the GI50 (SR) was > 10 µM (inactive). The GI50 (MOLT-4) was > 100 µM (inactive), the GI50 (UO-31) was 50.2 µM (inactive) and the GI50 (HCT-116) was > 100 µM (inactive). The GI50 (MDA-MB-231) was > 100 µM (inactive), the GI50 (BT-549) was > 100 µM (inactive) and the GI50 (786-0) was > 100 µM (inactive).

In the case of NS(=O)(=O)c1cc(S(N)(=O)=O)c(NC(=O)Nc2ccc(Cl)c(Cl)c2)c(Cl)c1Cl, the GI50 (CAKI-1) is reported as > 100 µM (inactive), the GI50 (SK-MEL-2) is reported as > 100 µM (inactive) and the GI50 (NCI-H522) is reported as > 100 µM (inactive). For the same compound, the GI50 (NCI-H460) was > 100 µM (inactive), the GI50 (SW-620) was > 100 µM (inactive) and the GI50 (UACC-257) was > 100 µM (inactive). The GI50 (SNB-19) was > 100 µM (inactive), the GI50 (RPMI-8226) was > 100 µM (inactive) and the GI50 (HOP-92) was 4.18 µM (inactive). For the same compound, the GI50 (NCI-H23) was > 100 µM (inactive), the GI50 (SK-MEL-5) was > 100 µM (inactive) and the GI50 (A549) was > 100 µM (inactive). For the same compound, the GI50 (HCT-15) was > 100 µM, the GI50 (SK-MEL-28) was > 100 µM (inactive) and the GI50 (OVCAR-4) was > 100 µM (inactive). For the same compound, the GI50 (SF-295) was > 100 µM (inactive), the GI50 (MCF7) was > 100 µM (inactive) and the GI50 (NCI-H226) was 96.2 µM (inactive). The GI50 (MDA-N) was > 100 µM (inactive), the GI50 (KM12) was > 100 µM (inactive) and the GI50 (M14) was > 100 µM (inactive). The GI50 (PC-3) was > 100 µM (inactive), the GI50 (UACC-62) was > 100 µM (inactive) and the GI50 (HCC 2998) was > 100 µM (inactive). For the same compound, the GI50 (LOX IMVI) was > 100 µM (inactive), the GI50 (COLO 205) was 40.6 µM (inactive) and the GI50 (U-251) was > 100 µM (inactive). For the same compound, the GI50 (IGROV-1) was > 100 µM (inactive), the GI50 (MDA-MB-435) was > 100 µM (inactive) and the GI50 (ACHN) was > 100 µM (inactive). The GI50 (K562) was > 100 µM (inactive), the GI50 (Hs-578T) was > 100 µM (inactive) and the GI50 (TK-10) was > 100 µM (inactive). The GI50 (HT-29) was > 100 µM (inactive), the GI50 (EKVX) was > 100 µM (inactive) and the GI50 (OVCAR-8) was > 100 µM (inactive). The GI50 (OVCAR-5) was > 100 µM (inactive), the GI50 (SF-268) was > 100 µM (inactive) and the GI50 (SN12C) was > 100 µM (inactive). For the same compound, the GI50 (NCI/ADR-RES) was > 100 µM (inactive), the GI50 (SR) was > 100 µM (inactive) and the GI50 (MOLT-4) was > 100 µM (inactive). The GI50 (UO-31) was > 100 µM (inactive), the GI50 (HCT-116) was > 100 µM (inactive) and the GI50 (SK-OV-3) was > 100 µM (inactive). The GI50 (MDA-MB-231) was > 100 µM (inactive), the GI50 (BT-549) was > 100 µM (inactive) and the GI50 (OVCAR-3) was > 100 µM (inactive). For the same compound, the GI50 (786-0) was > 100 µM (inactive).
